These results are taken from patent US9061010B2, “Methods of treating a Flaviviridae family viral infection and compositions for treating a Flaviviridae family viral infection” (The Board of Trustees of the Leland Stanford Junior …, priority 2007, dated 2015).

The subject of data set [1] is HCV RNA replication (full-length luciferase reporter-linked HCV genome). The experiment in a line: Luciferase reporter-linked HCV replication assay in Huh7.5 cells. The format is cell-based, Hepatitis C Virus. The conditions noted are these: for percent of normal HCV RNA replication remaining at 5 µM / percent of normal HCV RNA replication remaining at 10 µM: Hepatitis C virus, Huh7.5, read-out: AV, percent of normal HCV RNA replication remaining. The protocol:
For example, HCV replication assays employing a luciferase reporter-linked HCV genome in the presence of various combinations of clemizole and an NS3 protease inhibitor (SCH503034) are shown in FIGS. 1A and 1B. In such assays, luciferase activity is directly proportional to HCV RNA genome replication. […] The results can be plotted on a linear or log scale as a function of drug concentrations to generate replication inhibition curves.
Luciferase assays were performed at 72 hr.
Medium was changed daily.
The experiment was repeated four times, each time with triplicates.
(Reporter assays use an easily measured gene product as a stand-in for the process of interest.)

The target in the next data set is T1, HuR protein (Homo sapiens, UniProt Q15717).
T1 construct: made in house; […]
T1 sequence (Q15717 whole entry): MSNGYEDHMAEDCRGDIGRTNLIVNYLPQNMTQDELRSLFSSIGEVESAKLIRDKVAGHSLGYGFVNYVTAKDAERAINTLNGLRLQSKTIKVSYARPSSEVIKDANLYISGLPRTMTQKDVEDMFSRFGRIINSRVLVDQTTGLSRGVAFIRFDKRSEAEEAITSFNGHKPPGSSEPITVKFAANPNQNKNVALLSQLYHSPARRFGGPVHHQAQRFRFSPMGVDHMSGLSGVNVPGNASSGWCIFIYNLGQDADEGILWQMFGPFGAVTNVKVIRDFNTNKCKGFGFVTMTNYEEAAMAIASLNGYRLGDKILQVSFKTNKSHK
The data set is described as follows: Microfluidic RNA binding assay of HuR (specificity of hits). The conditions noted are these: 0.1 mM. An excerpt:
For each experiment, an image was taken after MITOMI and the final PBS wash. This was used to determine the concentration of surface bound protein (FITC channel) as well as surface bound target RNA (Cy3 channel). […] Data from multiple data points were averaged, and their standard deviations calculated. Results were then normalized to 1. Between 10-20 replicates were included for each probe tested. A control protein, Gus-his (Roche) was included in each experiment and subjected to the same analysis. When present, detected signal with Gus-his was used for background subtraction.
Specificity of hits identified in the small molecule screen: To determine the specificity of the hits identified in the small molecule screen, the HuR protein (one of the human RNA binding protein used to validate our RNA binding assay) was selected. […] Binding of HuR to the consensus 4A RNA sequence was tested in the presence of the inhibitory molecules shown to inhibit RNA binding by NS4B. […] Similarly, 0.1 mM of the identified compounds didn't have an inhibitory effect on binding of HuR to the 3′ terminus of the negative HCV RNA strand.

For data set [2] the following is noted: human, in vivo; cited from earlier work.
In another data set the test system is Huh7.5 cells. The data set is described as follows: Alamar Blue viability assay. As to the method:
(§1) Huh-7.5 cells were maintained in Dulbecco's modified minimal essential medium (Gibco) supplemented with 1% L-glutamine (Gibco), 1% penicillin, 1% streptomycin (Gibco), 1× nonessential amino acids (Gibco) and 10% fetal bovine serum (Omega Scientific). Cell lines were passaged twice weekly after treatment with 0.05% trypsin-0.02% EDTA and seeding at a dilution of 1:5. Subconfluent Huh-7.5 cells were trypsinized and collected by centrifugation at 700 g for 5 min. The cells were then washed three times in ice-cold RNase-free PBS (BioWhittaker) and resuspended at 1.5*10^7 cells/ml in PBS. Wild type or mutant FL-J6/JFH-5′C19Rluc2AUbi RNA for electroporation was generated by in vitro transcription of XbaI-linearized DNA templates using the T7 MEGAscript kit (Ambion), followed by purification, essentially as described above (In vitro RNA transcription and fluorescent labeling). 5 μg of RNA was mixed with 400 μl of washed Huh-7.5 cells in a 2 mm-gap cuvette (BTX) and immediately pulsed (0.82 kV, five 99 μs pulses) with a BTX-830 electroporator. After a 10 min recovery at 25° C., pulsed cells were diluted into 10 ml of prewarmed growth medium. Cells from several electroporations were pooled to a common a stock and seeded in 6 well plates (5*10^5 cells per well). After 24 hr, medium was replaced and cells were grown in the presence of serial dilutions of the various inhibitory compounds (Sigma) identified in the screen. […] Untreated cells were used as a negative control for water soluble compounds. For compounds solubilized in DMSO, untreated cells were grown in the presence of corresponding concentrations of the solvent as a negative control. Medium was changed daily. After 72 hr of treatment, cells were subjected to an alamar blue based viability assay and luciferase assay.
(§2) Following 72 hrs of treatment, cells were incubated for 3 hrs at 37° C. in the presence of 10% Alamar Blue reagent (TREK Diagnostic Systems).
(In general: Alamar Blue is a resazurin reagent that responds to reducing activity.)

Data set [3] is described as follows: Alamar Blue viability assay. The conditions noted are these: human. The protocol: as §1, §2

Consider `Cc1nc2ccccc2n1Cc1ccc(Br)cc1`, for which, in data set [1] (5 uM), the AV score result was “+++ (0-30% residual activity)” and the percent of normal HCV RNA replication remaining at 5 µM amounted to 3%. Moreover, in data set [1] (10 uM), the AV score result is “+++ (0-30% residual activity)” and the percent of normal HCV RNA replication remaining at 10 µM is 2%.
As to Interferon alpha B2, in data set [1] (100 u/ml, 72 hr treatment), the “reduction of luciferase activity (positive control)” value was “three log reduction”.
In the case of `COC(=O)c1ccc(Cn2cnc3ccccc32)cc1`, in data set [1] (5 uM), the AV score entry is on record as “+ (60-90% residual activity)” and the percent of normal HCV RNA replication remaining at 5 µM came to 74%. For the same compound, in data set [1] (10 uM), the AV score entry is reported as “++ (30-60% residual activity)” and the percent of normal HCV RNA replication remaining at 10 µM is 54%.
As for `OCc1nc2ccccc2n1Cc1ccc(Br)cc1`, in data set [1] (5 uM), the AV score entry is on record as “++ (30-60% residual activity)” and the percent of normal HCV RNA replication remaining at 5 µM was found to be 50%. In data set [1] (10 uM), the AV score entry is listed as “+++ (0-30% residual activity)” and the percent of normal HCV RNA replication remaining at 10 µM worked out at 28%.
Taken in the same sequence, the figures for `Cc1cc2ncn(Cc3ccc(Cl)cc3Cl)c2cc1C` were “+++ (0-30% residual activity)”, 30%, “+++ (0-30% residual activity)” and 8%.
For the compound `COc1ccc(Cn2cnc3ccccc32)cc1`, in data set [1] (5 uM), the AV score entry is recorded as “+ (60-90% residual activity)” and the percent of normal HCV RNA replication remaining at 5 µM is 70%. For the same compound, in data set [1] (10 uM), the AV score entry is on record as “++ (30-60% residual activity)” and the percent of normal HCV RNA replication remaining at 10 µM is 58%.
On to `Brc1ccc(Cn2cnc3ccccc32)cc1`, for which, in data set [1] (5 uM), the AV score entry was “+++ (0-30% residual activity)” and the percent of normal HCV RNA replication remaining at 5 µM was found to be 23%. In data set [1] (10 uM), the AV score entry was “+++ (0-30% residual activity)” and the percent of normal HCV RNA replication remaining at 10 µM turned out to be 8%.
In the case of `Cc1nc2cc(Cl)ccc2n1Cc1ccccc1`, in data set [1] (5 uM), the AV score entry is “+ (60-90% residual activity)” and the percent of normal HCV RNA replication remaining at 5 µM turned out to be 87%. Besides, in data set [1] (10 uM), the AV score result is recorded as “+ (60-90% residual activity)” and the percent of normal HCV RNA replication remaining at 10 µM was determined as 60%.
As for `O=C(O)C1=CC(=C(c2ccc(O)c(C(=O)O)c2)c2ccc(O)c(C(=O)O)c2)C=CC1=O` [ATA, Aurintricarboxilic acid], on HuR protein, the “inhibitory effect on binding of HuR to the 3′ terminus of the negative HCV RNA strand” value is reported as “significantly inhibited” and the “inhibitory effect on binding of HuR to the consensus 4A RNA sequence” value is reported as “significantly inhibited”.
With `Cl.Clc1ccc(Cn2c(CN3CCCC3)nc3ccccc32)cc1` [Clemizole hydrochloride, 1-p-Chlorobenzyl-2-(1-pyrrolidinyl)methylbenzimidazole hydrochloride, reference compound], the “time to relief of itching” value in data set [2] was 24 to 48 h. The cellular toxicity result in the data set with Huh7.5 cells (at concentrations up to 20 μM, 72 hr, Alamar Blue) is reported as “no measurable cellular toxicity”. The “decrease in viral replication” value in data set [1] (20 μM, luciferase at 72 hr) was “tenfold decrease”.
Regarding `Clc1ccc(Cn2c(CN3CCCC3)nc3ccccc32)cc1` [drawing 374], the “Viab, percent of normal cell viability remaining” value with Huh7.5 cells (5 uM) came to 107%. In addition, the “Viab, percent of normal cell viability remaining” value in the data set on Huh7.5 cells (10 uM) amounted to 93%. Moreover, in data set [3], the viability at 72 h, 5 µM is 90 to 100% and the viability at 72 h, 10 µM lay within 90 to 100%. Also, in data set [1] (5 uM), the AV score entry is given as “+ (60-90% residual activity)” and the percent of normal HCV RNA replication remaining at 5 µM was 62%. For the same compound, in data set [1] (10 uM), the AV score entry is reported as “++ (30-60% residual activity)” and the percent of normal HCV RNA replication remaining at 10 µM amounted to 37%.
As for `Cc1ccc(Cn2cnc3ccccc32)cc1`, in data set [1] (5 uM), the AV score result is “++ (30-60% residual activity)” and the percent of normal HCV RNA replication remaining at 5 µM was found to be 49%. In data set [1] (10 uM), the AV score result is given as “+++ (0-30% residual activity)” and the percent of normal HCV RNA replication remaining at 10 µM was 23%.
Consider `CC(C)(C)c1ccc(Cn2cnc3ccccc32)cc1`, for which, in data set [1] (5 uM), the AV score entry is reported as “+++ (0-30% residual activity)” and the percent of normal HCV RNA replication remaining at 5 µM came out at 30%. Moreover, in data set [1] (10 uM), the AV score entry is given as “+++ (0-30% residual activity)” and the percent of normal HCV RNA replication remaining at 10 µM was 12%.

In general, viability refers to a per cent measure of how many cells are alive, often set against a control. Low values mean more harm to the cells, high ones less harm to the cells.
